Data: ChEMBL document CHEMBL3046808, “Novel 2-(E)-substituted benzylidene-6-(N-substituted aminomethyl)cyclohexanones and cyclohexanols as analgesic and anti-inflammatory agents” (2013)

What was measured:
Type in all cases: functional
Rattus norvegicus = experiment: Anti-inflammatory activity in Wistar Rattus norvegicus (rat) assessed as inhibition of carrageenan-induced paw edema at 200 mg/kg, po administered 1 hr prior to carrageenan-challenge measured after 3 hr relative to untreated control
Mus musculus [1] = experiment: Analgesic activity in Kunming Mus musculus (mouse) assessed as inhibition of acetic acid-induced writhing at 200 mg/kg, po administered 1 hr prior to acetic acid challenge measured for 15 min relative to untreated control
Mus musculus [2] = experiment: Anti-inflammatory activity in Kunming Mus musculus (mouse) assessed as inhibition of xylene-induced ear swelling at 200 mg/kg, po administered 1 hr prior to xylene challenge measured after 30 min relative to untreated control
Mus musculus [3] = experiment: Analgesic activity in Kunming Mus musculus (mouse) assessed as increase in pain threshold at 200 mg/kg, po after 1 hr by hot plate method (reference value: 4.2%)

SMILES | inhibition in vivo at 200 mg/kg (Rattus norvegicus) [%] | inhibition in vivo at 200 mg/kg (Mus musculus [1]) [%] | inhibition in vivo at 200 mg/kg (Mus musculus [2]) [%] | Activity (Mus musculus [3]) [%]
Cc1cccc(N(C)CC2CCC/C(=C\c3ccccc3)C2=O)c1 (configuration not stated) | 46.8 | 76.7 | 44.9 | 108.45
COc1ccc(C2(O)/C(=C/c3ccc(C)cc3)CCCC2CN(C)c2ccc(C)cc2)cc1 (racemic) | 29.8 | 62.2 | 29.9 | 93.41
COc1cccc(C2(O)/C(=C/c3ccccc3)CCCC2CN(C)c2cccc(C)c2)c1 (racemic) | 44.7 | 79.9 | 36 | 116.52
COc1ccc(C2(O)/C(=C/c3ccccc3)CCCC2CN(C)c2ccccc2)cc1 (racemic) | 38.3 | 75.7 | 26.5 | 121.45
COc1cccc(C2(C)/C(=C/c3ccc(C)cc3)CCCC2CN(C)c2ccccc2)c1 (racemic) | 25.5 | 80.9 | 18 | 153.01
Cc1cccc(N(C)CC2CCC/C(=C\c3ccc(S(C)(=O)=O)cc3)C2=O)c1 (configuration not stated) | 36.2 | 72.8 | 36.7 | 109.98
Cc1ccc(/C=C2\CCCC(CN(C)c3ccccc3)C2=O)cc1 (configuration not stated) | 44.7 | 68.2 | 39.5 | 79.04
COc1cccc(C2(O)/C(=C/c3ccc(C)cc3)CCCC2CN(C)c2ccc(C)cc2)c1 (racemic) | 21.3 | 81.6 | 22.9 | 125.34
Cc1cccc(N(C)CC2CCC/C(=C\c3ccccc3)C2(O)c2ccccc2)c1 (racemic) | 36.2 | 70.6 | 23.1 | 83.22
COc1cccc(C2(O)/C(=C/c3ccccc3)CCCC2CN(C)c2ccc(C)cc2)c1 (racemic) | 57.5 | 77.8 | 41.5 | 110.54
COc1ccc(C2(O)/C(=C/c3ccccc3)CCCC2CN(C)c2ccc(C)cc2)cc1 (racemic) | 21.3 | 78.7 | 26.5 | 117.46
CN(CC1CCC/C(=C\c2ccc(S(C)(=O)=O)cc2)C1=O)c1ccccc1 (configuration not stated) | 51.1 | 81 | 46.9 | 142.7
Cc1ccc(N(C)CC2CCC/C(=C\c3ccc(S(C)(=O)=O)cc3)C2=O)cc1 (configuration not stated) | 31.9 | 84.5 | 27 | 155.12
COc1ccc(C2(O)/C(=C/c3ccc(C)cc3)CCCC2CN(C)c2ccccc2)cc1 (racemic) | 17 | 72.1 | 16.3 | 106.84
COc1ccc(C2(O)/C(=C/c3ccc(C)cc3)CCCC2CN(C)c2cccc(C)c2)cc1 (racemic) | 29.8 | 74.2 | 24.5 | 93.52
Cc1ccc(/C=C2\CCCC(CN(C)c3ccc(C)cc3)C2=O)cc1 (configuration not stated) | 38.3 | 76.5 | 27.6 | 71.6
COc1cccc(C2(O)/C(=C/c3ccccc3)CCCC2CN(C)c2ccccc2)c1 (racemic) | 38.3 | 82.2 | 34.7 | 162.71
CC(C)Cc1ccc(C(C)C(=O)O)cc1 (configuration not stated) [IBUPROFEN] | 53.2 | 84.1 | 40.1 | 158.56
CN(CC1CCC/C(=C\c2ccccc2)C1=O)c1ccccc1 (configuration not stated) | 76.6 | 69.7 | 49.7 | 109.59
Cc1ccc(/C=C2\CCCC(CN(C)c3cccc(C)c3)C2=O)cc1 (configuration not stated) | 36.2 | 75.8 | 35.4 | 75.5
Cc1ccc(N(C)CC2CCC/C(=C\c3ccccc3)C2(O)c2ccccc2)cc1 (racemic) | 59.6 | 64.2 | 66.7 | 70.08
Cc1ccc(N(C)CC2CCC/C(=C\c3ccccc3)C2=O)cc1 (configuration not stated) | 25.5 | 81 | 18.2 | 146.12
Cc1ccc(NCC2CCC/C(=C\c3ccccc3)C2=O)cc1 (configuration not stated) | 72.3 | 82.8 | 56.4 | 166.19
